{"source": "patent US20020090379A1", "about": "“INDUCING ANTIBODY RESPONSE AGAINST SELF-PROTEINS WITH THE AID OF FOREIGN T-CELL EPITOPES” (priority 1993, published 2002)", "key": {"[1]": {"system": "E^k molecule", "assay": "Competitive inhibition of radiolabelled peptide binding to affinity purified MHC class II E^k", "set-up": "species or system mouse", "settings": "125I-labelled marker Hb(64-76)Y, cold peptide >550 μm, pH 5", "description": "(§1) Peptide-MHC complexes were obtained by incubating ^125I-labelled peptide (10-100 nM) with affinity purified MHC class II molecules (2- 10 μM) at room temperature for 3 days (S. Mouritsen, J Immunol. 148, 1438-1444, 1992). The following peptides were used as radiolabelled markers of binding: Hb(64-76)Y which binds strongly to the E^k molecule and HEL(46-61)Y which binds strongly to the A^k molecule. These complexes were incubated with large amounts of cold non radiolabelled peptide (>550 μm) which should be sufficient to inhibit totally all immunologically relevant MHC class II binding. Either the same peptides were used or were three different overlapping peptides representing the flanking regions as well as the entire OVA(325-336) sequence, containing the T cell epitope, which was substituted into ubiquitin (see Example 2). The three peptides were: TITLEPSQAVHAA (U(12-26)), PSQAVHAAHAEINEKE (U(19-34)) and HAEINEKEGIPPDQQ (U(27-41)). The reaction buffer contained 8 mM citrate, […], and 0.05% NP-40 (pH 5) and peptide-MHC class II complexes were separated (in duplicate) from free peptide by gel filtration using G25 spun columns. Both the radioaictivities of the excluded “void” volume and of the included “void” were measured by gamma spectrometry. The competitive inhibition of maximal binding (in percent) by addition of cold peptide was calculated."}, "[2]": {"target": "A^k molecule (Mus musculus, UniProt P01910+P06343)", "assay": "Competitive inhibition of radiolabelled peptide binding to affinity purified MHC class II A^k", "settings": "125I-labelled marker HEL(46-61)Y, cold peptide >550 μm, pH 5", "description": "as §1"}}}
{"substance": "HEL(46-61): marker peptide which binds strongly to the A^k molecule; cold version used as competitor [reference compound]", "values": [{"measurement": "competitive inhibition of maximal binding by addition of cold peptide", "setting": "[1]", "value": 0.0, "unit": "%"}, {"measurement": "competitive inhibition of maximal binding by addition of cold peptide", "setting": "[2]", "value": 97.4, "unit": "%"}]}
{"substance": "PSQAVHAAHAEINEKE [U(19-34), overlapping peptide of the OVA(325-336) region substituted into ubiquitin]", "values": [{"measurement": "competitive inhibition of maximal binding by addition of cold peptide", "setting": "[1]", "value": 12.2, "unit": "%"}, {"measurement": "competitive inhibition of maximal binding by addition of cold peptide", "setting": "[2]", "value": 44.6, "unit": "%"}]}
{"substance": "HAEINEKEGIPPDQQ [U(27-41), overlapping peptide of the OVA(325-336) region substituted into ubiquitin]", "values": [{"measurement": "competitive inhibition of maximal binding by addition of cold peptide", "setting": "[1]", "value": 0.0, "unit": "%"}, {"measurement": "competitive inhibition of maximal binding by addition of cold peptide", "setting": "[2]", "value": 7.8, "unit": "%"}]}
{"substance": "TITLEPSQAVHAA [U(12-26), overlapping peptide of the OVA(325-336) region substituted into ubiquitin]", "values": [{"measurement": "competitive inhibition of maximal binding by addition of cold peptide", "setting": "[1]", "value": 45.6, "unit": "%"}, {"measurement": "competitive inhibition of maximal binding by addition of cold peptide", "setting": "[2]", "value": 35.3, "unit": "%"}]}
